Earlier results as cited in patent US7371422B2, “Cereal grain kernels fortified with iron and calcium” (The Procter & Gamble Company, priority 2003, dated 2008).

Conditions: in adult college students (Bovell-Benjamin et al. 1999); relative to ferrous sulfate

For NCC(=O)[O-].NCC(=O)[O-].[Fe+2] [Ferrous bis-glycinate, ferrous bis-glycinate], the “absorbed ... times better than ferrous sulfate” value is given as 4.7 times.
